Source: patent publication US12281098B2, “Five-membered-fused six-membered compound, preparation method, pharmaceutical composition and use” (HANGZHOU POLYMED BIOPHARMACEUTICALS, INC., priority 2021, dated 2025)
Read-outs that look alike come from different tables or passages of the source.

Experiments:
THP-1 cells = test: LPS-stimulated cytokine (TNFα) release in THP-1; type: cell-based, Human; conditions: LPS 100 ng/mL, 5 hours, TNF-α ELISA, read-out: Inhibition IC50 (nM) of cytokines (TNFα) against LPS-stimulated inflammatory responses in THP-1 cells
Description: THP-1 cells were cultured in suspension in RPMI 1640 complete medium (containing 10% serum, 1% penicillin-streptomycin, and 55 μM β-mercaptoethanol). THP-1 cells were collected, centrifuged at 350×g at room temperature to discard the supernatant, and resuspended in RPMI 1640 complete medium to a concentration of 2×10^6 cells per mL. THP-1 cells were spread into a 96-well plate at a concentration of 2×10^5 cells per well, and different concentrations of the compound to be tested were added thereto. The plate was incubated in a 37° C. cell culture incubator with 5% CO2 for 60 minutes. 50 μL of LPS at a final concentration of 100 ng/mL was added to a 96-well plate, and incubated in a 37° C. cell culture incubator for 5 hours. The cell culture plate was then taken out from the incubator, and centrifuged at 350×g at low temperature for 5 minutes to collect 150 μL of the supernatant. Referring to the instructions in the Human TNF-α Duoset ELISA Kit, the level of TNF-α in the cell culture supernatant was detected.
Data on the inhibitory activity of cytokines (TNFα) against LPS-stimulated inflammatory responses in THP-1 cells are shown in Tables 3 and 4.

IRAK4 kinase = target: T1, IRAK4 kinase (Homo sapiens, UniProt Q9NWZ3); test: Compound inhibition of IRAK4 kinase activity (fluorescence microfluidic mobility shift assay); type: biochemical; conditions: 10 μM ATP, 6 nM IRAK4 kinase
T1 construct: purchased Carna 09-145
T1 sequence (Q9NWZ3 1-460): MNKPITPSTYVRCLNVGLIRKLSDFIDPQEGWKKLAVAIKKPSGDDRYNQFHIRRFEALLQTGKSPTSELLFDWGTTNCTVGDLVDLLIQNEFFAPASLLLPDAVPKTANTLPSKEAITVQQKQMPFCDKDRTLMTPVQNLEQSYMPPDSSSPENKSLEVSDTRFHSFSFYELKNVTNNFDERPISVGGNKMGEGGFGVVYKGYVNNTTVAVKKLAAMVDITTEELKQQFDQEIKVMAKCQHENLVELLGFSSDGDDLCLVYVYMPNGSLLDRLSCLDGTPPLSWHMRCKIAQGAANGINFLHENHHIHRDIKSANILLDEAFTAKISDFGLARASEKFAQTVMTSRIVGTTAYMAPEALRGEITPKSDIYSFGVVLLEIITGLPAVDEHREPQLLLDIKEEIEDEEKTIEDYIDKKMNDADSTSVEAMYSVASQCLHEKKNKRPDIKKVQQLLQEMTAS
Description: Based on the experimental method of fluorescence microfluidic mobility shift assay, the IC50 value of the compound for competitive binding of ATP to IRAK4 kinase was determined. The initial detection concentration of the compound was 10 μM, which was 4-fold serially diluted to 0.38 nM and assayed in duplicate. In this case, commercially available staurosporine was the standard control for the assay.
1) IRAK4 kinase was dissolved in kinase buffer (50 mM HEPES pH 7.5, 10 mM MgCl2, 2 mM DDT, and 0.01% Brij-35) at a final concentration of 6 nM.
2) The substrate peptide FAM-P8 and ATP were dissolved in the above kinase buffer, and the final concentrations of the substrate peptide FAM-P8 and ATP for IRAK4 were 3 μM and 10 μM, respectively.
3) Compound dilution: The compound was first diluted to 50 μM, and then 4-fold serially diluted with DMSO. In this case, the solution without compound and kinase served as the blank control, corresponding to the “minimum value” shown below; the solution without compound but containing kinase, adenosine 5′-triphosphate disodium salt hydrate, DMSO, and the buffer served as the positive control, corresponding to the “maximum value” shown below.
4) Kinase reaction and termination: 10 μL of the kinase buffer was added to a 384-well plate containing 5 μL of the compound to be tested, and the mixture was incubated at room temperature for 10 minutes; another 10 μL of buffer containing the substrate peptide and adenosine 5′-triphosphate disodium salt hydrate was added to the 384-well plate, and after incubation at 28° C. for 1 hour, 25 μL of termination solution (100 mM HEPES pH 7.5, 50 mM EDTA, 0.2% Coating Reagent #3, and 0.015% Brij-35) was added to each well to terminate the reaction.
5) Data reading: CaliperEZ Reader II instrument was used to read the conversion rate data. Setting conditions: downstream voltage as −500 V, upstream voltage as −2250 V, base pressure as −0.5 PSI, and screening pressure as −1.2 PSI.
6) Data calculation: the conversion rate data was copied from CaliperEZ Reader II, and the conversion rate was converted into inhibition rate data. The calculation formula is as follows: Inhibition percentage (%)=(maximum value−conversion rate)/(maximum value−minimum value)*100%
IC50 values were fitted with XLFit excel add-in version 5.4.0.8.

[1] = target: T2, IRAK4 protein in THP-1 cells (Homo sapiens, UniProt Q9NWZ3); test: IRAK4 protein degradation in THP-1 induced by PROTAC (Western Blot); type: cell-based; conditions: Table 6, estimated bins, GAPDH internal reference
T2 construct: endogenous in cells; host or cells: THP-1
T2 sequence (Q9NWZ3 1-460): T1 sequence (Q9NWZ3 1-460)
Description: 3.1. Based on the experimental method of immunoblot, i.e., Western Blot, THP-1 cell samples processed by gel electrophoresis were stained with specific antibodies, and the degradation activity of the compounds on the IRAK4 protein in THP-1 cells was determined by analyzing the position of the staining and the depth of the staining. The detection concentrations of the compounds were 0 μM, 0.3 μM, 1 μM, and 3 μM, and the compounds were used to treat the cells for 8 hours, 16 hours, 24 hours, and 48 hours. In this case, glyceraldehyde-3-phosphate dehydrogenase (GAPDH) was the internal reference protein for the assay.
THP-1 cells were spread into a 6-well plate at a density of 1.5×10^6 cells per mL, and incubated in a 37° C. cell culture incubator with 5% CO2 for 2 hours. The compound was diluted with DMSO to 0.6 mM, 0.2 mM, and 0.06 mM, respectively. 10 μL of compound solution was added to the corresponding wells, and the plate was incubated in the incubator for 16 hours, 24 hours, and 48 hours, respectively. The drug-treated THP-1 cells were collected from the wells, added with 120 μL of RIPA lysis buffer containing protease inhibitor, phosphatase inhibitor cocktail 2, and phosphatase inhibitor cocktail 3, and lysed on wet ice for 30 minutes. The cell lysate was then centrifuged at low temperature and high speed for 5 minutes, and the supernatant was collected. Referring to the instructions in the Pierce™ BCA Protein Assay Kit, the cell samples were tested for protein concentration.
The samples were adjusted to the same concentration using lysis buffer and NuPAGE® LDS sample buffer containing 1 M DTT. The samples were heated at 95° C. for 5 minutes and centrifuged at low temperature and high speed. 20 μL of prepared protein sample and 4 μL of PageRuler Prestained Protein Ladder were added to the gel wells. The mixture was electrophoresed at a voltage of 80 V for 0.5 hours, and then electrophoresed for another 1.5 hours after the voltage was adjusted to 120 V. The gel was removed and proteins in the gel were transferred to IBlot™ 2 Transfer Stack at a voltage of 20V. After successful membrane transfer, the bands were cut out at 65 kDa to 40 kDa and 40 kDa to 30 kDa, respectively. The membrane was blocked with 5% non-fat milk at room temperature for 1 hour. The membrane was washed three times with 1×TBST, and incubated with IRAK4 antibody working solution at 4° C. overnight. The IRAK4 antibody working solution was discarded, and the membrane was washed three times with 1×TBST. After the corresponding membrane was incubated with Goat Anti-Rabbit IgG H&L (HRP) working solution and Goat Anti-Mouse IgG H&L (HRP) working solution at room temperature for 1 hour, the antibody working solutions were discarded, and the membrane was washed three times with 1×TBST. Referring to the instructions in the SuperSignal™ West Femto Maximum Sensitivity Substrate Kit, the reagents in the kit were mixed in equal volume proportions to prepare a luminescent mixture, and the membrane was incubated for 1 minute and removed for exposure.
WB assay: The results 24 hours after administration at 1 μM were divided into estimated <25%, <50%, <75%, and <100%.

| Structure (SMILES) | IC50 (THP-1 cells; Homo sapiens, THP-1, Table 3) [nM] | IC50 (THP-1 cells; Table 4) [nM] | IC50 (IRAK4 kinase; Table 1) [µM] | IC50 (IRAK4 kinase; Table 2) [µM] | Western Blot results 24 hours after administration at a drug concentration of 1 μM [1] [%] | IC50 (THP-1 cells; Homo sapiens, THP-1, Table 4) [nM] |
| --- | --- | --- | --- | --- | --- | --- |
| CC(C)(O)c1cc2nn(CCN3CCN(CC(=O)NCCOCCOCCNc4cccc5c4C(=O)N(C4CCC(=O)NC4=O)C5=O)C3=O)cc2cc1NC(=O)c1cccc(C(F)(F)F)n1 (stereo not drawn) [III-2] | ≥ 10000 | ≥ 10000 | 0.1 to 1 | 0.1 to 1 | – | – |
| COc1cc2c(cc1NC(=O)c1cccc(C(F)(F)F)n1)CN(CC(=O)N1CCC3(CC1)CCN(c1cccc4c1C(=O)N(C1CCC(=O)NC1=O)C4=O)CC3)C2=O (stereo not drawn) [III-24] | 100 to 1000 | 100 to 1000 | 0.1 to 1 | 0.1 to 1 | – | – |
| COc1cc2nn(CCN3CC4CCC(C3)N4CC(=O)N3CCC4(CC3)CCN(c3cccc5c3C(=O)N(C3CCC(=O)NC3=O)C5=O)CC4)cc2cc1NC(=O)c1cccc(C(F)(F)F)n1 (stereo not drawn) [III-54] | – | – | – | < 0.1 | <25 | – |
| COc1cc2nn(CCN3CCN(CC(=O)N4CC5(CC(CC(=O)N[C@H](C(=O)N6C[C@H](O)C[C@H]6C(=O)N[C@@H](C)c6ccc(-c7scnc7C)cc6)C(C)(C)C)C5)C4)CC3)cc2cc1NC(=O)c1cccc(C(F)(F)F)n1 [III-31] | – | – | < 0.1 | < 0.1 | – | 1000 to 10000 |
| COc1cc2nn(CCN3CCN(CC(=O)N4CCC5(CCC(N[C@H](C(=O)N6C[C@H](O)C[C@H]6C(=O)N[C@@H](C)c6ccc(-c7scnc7C)cc6)C(C)(C)C)CC5)CC4)C3=O)cc2cc1NC(=O)c1cccc(C(F)(F)F)n1 [III-35] | – | – | – | < 0.1 | – | 100 to 1000 |
| COc1cc2nn(CCN3CCN(CC(=O)N4CCC5(CC4)CCN(c4ncc(Nc6cccc7c6C(=O)N(C6CCC(=O)NC6=O)C7=O)cn4)CC5)CC3)cc2cc1NC(=O)c1cccc(C(F)(F)F)n1 (stereo not drawn) [III-30] | – | – | – | < 0.1 | – | 1000 to 10000 |
| COc1cc2c(cc1NC(=O)c1cccc(C(F)(F)F)n1)CN(CCC(C)(C)C(=O)NC1CCN(c3cccc4c3C(=O)N(C3CCC(=O)NC3=O)C4=O)CC1)C2=O (stereo not drawn) [III-41] | – | – | – | < 0.1 | <25 | – |
| COc1cc2nn(CCN3CCN(CC(=O)N4CCC5(CCC(C(=O)N[C@H](C(=O)N6C[C@H](O)C[C@H]6C(=O)N[C@@H](C)c6ccc(-c7scnc7C)cc6)C(C)(C)C)CC5)CC4)CC3)cc2cc1NC(=O)c1cccc(C(F)(F)F)n1 [III-29] | – | – | < 0.1 | < 0.1 | – | 1000 to 10000 |
| COc1cc2nn(CCN3CCN(c4ccc(OCC#Cc5cccc6c5C(=O)N(C5CCC(=O)NC5=O)C6=O)cc4)CC3)cc2cc1NC(=O)c1cccc(C(F)(F)F)n1 (stereo not drawn) [III-69] | – | – | – | 0.1 to 1 | <25 | – |
| COc1cc2nn(CCN3CCN(CC(=O)N4CCC5(CCC(Oc6cccc7c6C(=O)N(C6CCC(=O)NC6=O)C7=O)CC5)CC4)CC3)cc2cc1NC(=O)c1cccc(C(F)(F)F)n1 (stereo not drawn) [III-56] | – | – | – | < 0.1 | <25 | – |
| CC(C)(O)c1cc2nn(CCN3CCN(CC(=O)N4CC5(C4)CN(c4cccc6c4C(=O)N(C4CCC(=O)NC4=O)C6=O)C5)CC3)cc2cc1NC(=O)c1cccc(C(F)(F)F)n1 (stereo not drawn) [III-63] | – | – | – | < 0.1 | <25 | – |
| CC(C)(O)c1cc2nn(CCN3CCN(CC(=O)NCCCCNc4cccc5c4C(=O)N(C4CCC(=O)NC4=O)C5=O)C3=O)cc2cc1NC(=O)c1cccc(C(F)(F)F)n1 (stereo not drawn) [III-10] | 1000 to 10000 | 1000 to 10000 | 0.1 to 1 | 0.1 to 1 | – | – |
| COc1cc2c(cc1NC(=O)c1cccc(C(F)(F)F)n1)CN(CCC(C)(C)C(=O)N1CCC3(CC1)CCN(c1cccc4c1C(=O)N(C1CCC(=O)NC1=O)C4=O)CC3)C2=O (stereo not drawn) [III-25] | 1000 to 10000 | 1000 to 10000 | 0.1 to 1 | 0.1 to 1 | – | – |
| COc1cc2c(cc1NC(=O)c1cccc(C(F)(F)F)n1)CN(CCC(C)(C)C(=O)N1CCC3(CCC(C(=O)N[C@H](C(=O)N4C[C@H](O)C[C@H]4C(=O)N[C@@H](C)c4ccc(-c5scnc5C)cc4)C(C)(C)C)CC3)CC1)C2=O [III-26] | 1000 to 10000 | 1000 to 10000 | < 0.1 | < 0.1 | – | – |
| CC(C)(O)c1cc2nn(CCN3CCN(CC(=O)N4CCC5(CC4)CCN(c4cccc6c4C(=O)N(C4CCC(=O)NC4=O)C6=O)CC5)C3=O)cc2cc1NC(=O)c1cccc(C(F)(F)F)n1 (stereo not drawn) [III-11] | – | – | 0.1 to 1 | 0.1 to 1 | – | 1000 to 10000 |
| COc1cc2nn(CCN3CCN(c4cccc5c4C(=O)N(C4CCC(=O)NC4=O)C5=O)CC3)cc2cc1NC(=O)c1cccc(C(F)(F)F)n1 (stereo not drawn) [III-39] | – | – | – | < 0.1 | <25 | – |
